According to patent US9694016B2 (Novartis AG, priority 2013, dated 2017):

Experiments:
[1] = molecular target: C-Raf TR (truncated C-Raf protein, Δ1-324 deletion mutant) (Homo sapiens (Human), UniProt P04049); type: biochemical; settings: truncated C-Raf approximately 4 nM, ATP 1 uM, 60 min pre-incubation, 1 hour reaction
Description: biotinylated Mek, kinase dead
biotinylated Mek, Kinase dead approximately 10 nM

[2] = molecular target: b-Raf (V600E) (Homo sapiens (Human), UniProt P15056, V600E); settings: read-out: b-Raf IC-50; Table 2; AlphaScreen, 3 hours reaction
Sequence of b-Raf (V600E) (P15056 whole entry V600E): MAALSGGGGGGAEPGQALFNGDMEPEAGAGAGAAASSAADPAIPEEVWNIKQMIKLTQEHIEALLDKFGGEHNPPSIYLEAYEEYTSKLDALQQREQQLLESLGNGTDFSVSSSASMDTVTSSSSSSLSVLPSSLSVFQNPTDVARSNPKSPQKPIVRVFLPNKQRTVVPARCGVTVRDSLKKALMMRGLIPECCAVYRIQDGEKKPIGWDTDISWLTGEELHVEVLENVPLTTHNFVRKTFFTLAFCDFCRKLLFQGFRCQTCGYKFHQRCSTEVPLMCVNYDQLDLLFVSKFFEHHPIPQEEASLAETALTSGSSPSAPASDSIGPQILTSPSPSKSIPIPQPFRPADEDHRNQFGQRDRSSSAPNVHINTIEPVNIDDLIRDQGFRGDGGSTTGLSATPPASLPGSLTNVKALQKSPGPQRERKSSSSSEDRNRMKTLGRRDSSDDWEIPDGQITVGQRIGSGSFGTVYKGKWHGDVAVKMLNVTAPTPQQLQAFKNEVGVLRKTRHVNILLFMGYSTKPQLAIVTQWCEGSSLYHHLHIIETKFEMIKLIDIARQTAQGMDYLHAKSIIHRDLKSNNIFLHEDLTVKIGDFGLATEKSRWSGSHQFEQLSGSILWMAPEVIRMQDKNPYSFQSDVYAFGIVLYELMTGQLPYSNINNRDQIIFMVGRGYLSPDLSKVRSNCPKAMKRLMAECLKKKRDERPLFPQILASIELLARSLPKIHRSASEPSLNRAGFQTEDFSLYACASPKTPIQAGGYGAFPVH

IC50 [1] [nM] | IC50 [2] [nM] | Compound
0.803 | – | Cc1ccc(C(=O)Nc2cccc(C(F)(F)F)c2)cc1-c1nc(N2CCOCC2)cc(N2CCOCC2)n1 [Example 14, 3-(4,6-dimorpholinopyrimidin-2-yl)-4-methyl-N-(3-(trifluoromethyl)phenyl)benzamide]
0.508 | 2.1 | Cc1ccc(C(=O)Nc2cccc(C(F)(F)F)c2)cc1-c1ccnc(N2CCOCC2)c1 [Example 63, 4-Methyl-3-(2-morpholinopyridin-4-yl)-N-(3-(trifluoromethyl)phenyl)benzamide]
0.308 | 0.7 | Cc1ccc(NC(=O)c2cccc(C(F)(F)F)c2)cc1-c1cncc(N2CCOCC2)n1 [Example 118, N-(4-methyl-3-(6-morpholinopyrazin-2-yl)phenyl)-3-(trifluoromethyl)benzamide]
0.27 | 0.4 | Cc1ccc(NC(=O)c2cccc(C(F)(F)F)c2)cc1-c1cn(C)c(=O)c(N2CCOCC2)n1 [Example 119, N-(4-methyl-3-(4-methyl-6-morpholino-5-oxo-4,5-dihydropyrazin-2-yl)phenyl)-3-(trifluoromethyl)benzamide]
1.29 | 3.6 | Cc1ccc(NC(=O)c2cccc(C(F)(F)F)c2)cc1-c1csc(N2CCOCC2)n1 [Example 199, N-(4-methyl-3-(2-morpholinothiazol-4-yl)phenyl)-3-(trifluoromethyl)benzamide]
